Data: patent US8962003B2, “Insect behaviour modifying compounds” (The New Zealand Institute for Plant and Food Research …, priority 2003, dated 2015)

Assays:
Thrips obscuratus = test: Field trials with baited water traps; format: in vivo; conditions: for Average ratio of female thrips caught relative to water traps (95% CI): female Thrips obscuratus, field water traps, 1 ml compound, 24 or 48 h, * = P < 0.05 vs control trap, brackets = backtransformed 95% CI
Description: (§1) Water traps were placed out into a field comprising several species of grasses, white clover (Trifolium repens L.) and several weed species (≈100 mm in height). Grass and cereal fields surrounded the field trial area on three sides and poplar (Poplar nigra L.) trees on the other, on the Canterbury Agricultural Research Centre campus. Each field trial consisted of five replicates of five treatments including a water control, positive control compound (ethyl nicotinate, ethyl isonicotinate, or benzaldehyde, Table 1) and three test compounds set out in the field in a grid (10×10 m) using a Latin square design with the trial area at least 100 m from the field boundary/shelter belt. White plastic containers (2 L capacity, 16×16×8.5 cm) containing approximately 1.7 L water, 0.4 ml of formalin (to prevent fungal growth) and 0.08 ml tween were placed above the crop canopy on inverted white (2 L capacity, 16×16×8.5 cm) or black plastic containers (24 cm diameter, 13 cm tall). For each treatment, 1 ml of a compound or water was added to a glass vial (12×32 mm screw thread vial) containing a 4.5 cm^2 piece of rolled filter paper (Whatman No. 1) that projected 1 cm above the top of the vial, creating a wick. The glass vial was suspended above the water in the centre of the trap using wire (0.5 mm diameter). The vials were removed after 24 or 48 h and the containers were sealed for transport to a laboratory. The contents from a water trap were poured through a sieve (250 μm mesh) and all insects were washed into a 50 ml Schott bottle within 24 h of collecting them from the field. All thrips were pipetted from each water trap sample and counted. Thrips were mounted on to slides using polyvinyl alcohol glue (1 part polyvinyl alchol: 4 parts water, 1 part lactic acid: 1.25 parts phenyl) from each trap using the following subsample method: less than 50 thrips, all thrips were mounted on to a slide; 50 to 100 thrips, a subsample of 25 thrips were mounted on to a slide; more than 100 thrips, a subsample of 50 thrips were mounted on to a slide. The slides were examined under 100× magnification using a compound microscope to identify thrips species. Subsampled thrips were sexed and identified to species according to Mound and Walker (Mound, L. A. and Walker, A. K. 1982. Terebrantia (Insecta: Thysanoptera). Fauna of New Zealand No. 1.). The mean number of each species for each treatment was calculated by multiplying the proportion of each species within a subsample with the total number of thrips counted in each water trap.

[1] = tested on: Frankliniella occidentalis; test: Y-tube olfactometer bioassay; format: in vivo; conditions: for MAC (%) = Minimum Active Concentration to elicit a response from thrips (P < 0.05): 1 µl undiluted or diluted in hexane; for % Response: percentage of thrips to walk up odour-laden arm: same cell prints a '(t value)' in brackets; for Behaviour-modifying activity towards Frankliniella occidentalis (in words): text statements (Table 2)
Protocol: The thrips behaviour-modifying activity of a compound may be evaluated in a glass Y-tube olfactometer following the method described by de Kogel et al. (de Kogel, W. J., Koschier, E. H. and Visser, J. H. Proc. Exper. & Appl. Entomol., N. E. V. Amsterdam, (1999) 10, 131-135.) and Koschier et al. (Koschier, E. H., De Kogel, W. J. and Visser, J. H. (2000) Jounrnal of Chemical Ecology, 26, 2643-2655).
The olfactory behaviour of thrips toward volatile compounds was evaluated in a glass Y-tube olfactometer following the method described by de Kogel et al. (de Kogel, W. J., Koschier, E. H. and Visser, J. H. Proc. Exper. & Appl. Entomol., N. E. V. Amsterdam, (1999) 10, 131-135.) and Koschler et al. (Koschier, E. H., De Kogel, W. J. and Visser, J. H. (2000) Journal of Chemical Ecology, 26, 2643-2655.). The Y-tube has two branching arms at an angle of 45° leading into a single tube, all 60 mm long, with an internal diameter of 5 mm. The arms of the Y-tube were connected to glass Wheaton Micro Kit® adapters that were in turn attached to 4 ml glass vials each containing a 1 cm^2 piece of filter paper (Whatman No. 1). The Y-tube and Wheaton apparatus were placed in a grey-box (to prevent external stimuli influencing thrips' behaviour), located in a darkened, air-conditioned room (22±3° C.). The Y-tube was placed at an inclining position of 25° between the Y-tube and horizontal plane and illuminated from above by a halogen lamp (780 lux). One microliter of the volatile compounds, either undiluted or diluted in hexane (95%, Pronalys AR), was applied to filter paper in one vial, while 1 μl of hexane was applied to filter paper held in the second vial. Air was drawn through activated charcoal before entering the Wheaton apparatus and Y-tube using a suction pump (AR Harris Co. Ltd, Christchurch) producing an airflow of 5 cm/s through each arm and 10 cm/s at the base of the Y-tube. Air was drawn through for 30 min before introducing the first thrips. Connections between the activated charcoal, Wheaton apparatus, Y-tube and suction pump consisted of silicone tubing.
An individual female Frankliniella occidentalis thrips of unknown age, that had been starved overnight, was released into the Y-tube using a small aspirator. The aspirator was made by placing a 1 ml pipette tip over the end of silicone tubing (5 mm diameter) the end of which was covered with fine mesh; the pipette tip was cut so it projected 5 mm beyond the end of the silicone tubing. A thrips was sucked up into the pipette tip, which was then placed at the base of the Y-tube. Most thrips walked up into the Y-tube within a few seconds, at which time the silicone air suction tubing was reconnected to the glass Y. The choice between clean or odour laden airflow was recorded when the thrips reached the far end of one arm and only those thrips that made the choice within 3 min were recorded. After every 5 thrips the Y-tube and Wheaton apparatus were rotated […] to avoid position effects. After 25 choices were recorded, the Y-tube and Wheaton apparatus were thoroughly cleaned with acetone (99.5%, BDH) and allowed to dry before repeating the experiment. Each compound and dilution was replicated 3 times.

[2] = tested on: Frankliniella occidentalis; test: Greenhouse trials with water traps or yellow sticky traps; format: in vivo; conditions: 24 h, capsicum greenhouse, t-value in brackets in same cell
Description: Greenhouse trials were undertaken using water traps similar to those used in the field trials (Example 2), or yellow sticky traps (Veg-Gro Supplies Ltd, Auckland) to examine the response of thrips to volatile compounds. The greenhouse, located in Auckland, is ≈88×200 m, constructed of glass, and is used to grow capsicum (Capsicum annuum var. Special, Fiesta, Boogie and Stirit). Water traps were placed 20 to 24 m apart within a row and 24 m apart between rows. There were 6 baited water traps for each compound tested and 6 water-only traps randomly positioned in a 6×2 grid in the greenhouse. Traps were positioned just above the crop canopy. Water traps (2 L containers, 16×16×8.5 cm) were assembled as described in Example 2 and left in the greenhouse for 24 h, after which time the containers were sealed for transport to a laboratory. Insects from each water trap were transferred to 5 ml glass tubes containing 75% ethanol within 24 h of collecting them from the greenhouse. Catches from each treatment were analysed under a stereomicroscope (100×) and the proportion of Frankliniella occidentalis was determined.
Yellow sticky traps (24.4×20 cm) were treated with a compound or water using a 30 ml spray mist dripulator (Arthur Holmes, Wellington) held 10 cm away from the sticky trap. Four sprays were applied to each side, coating the sticky trap in approximately 1 ml of water or compound. Sticky traps sprayed with the same treatment were separated using black metal foldback clips (19 mm, Celco), suspended within a cardboard box (29.5×22.3×30.2 cm), which was in turn sealed within a plastic bag for transport to the greenhouse. Traps were suspended in the greenhouse just above the crop canopy within 3 h after spraying, using the same layout as for the water traps (20 to 24 m apart within a row, 24 m between rows, in a 6×2 grid). After 24 h the traps were collected by wrapping each trap in plastic wrap for transport to the laboratory. The total number of thrips on the traps were counted using 10× magnification. Thrips were removed from the sticky traps using De-Solv-it® and Johnsons baby oil®. A subsample from each treatment was further analysed under a stereomicroscope (100×) and the proportion of Frankliniella occidentalis was determined.

[3] = tested on: Frankliniella occidentalis; conditions: MacDonald et al. 2002; cited from earlier work
Thrips tabaci = test: Field trials with baited water traps; format: in vivo; conditions: field trials (Table 1)
Description: as §1

[4] = female Frankliniella occidentalis
[5] = Yellow sticky trap, about 1 ml sprayed, >95% of thrips caught were Frankliniella occidentalis
[6] = female Frankliniella occidentalis, Y-tube
[7] = Water trap, around 66% of thrips caught were Frankliniella occidentalis

| Structure (SMILES) | MAC (%) = Minimum Active Concentration to elicit a response from thrips (P < 0.05) [1, 4] [%] | % Response: percentage of thrips to walk up odour-laden arm [1, 4] | Behaviour-modifying activity towards Frankliniella occidentalis (in words) [1] | also measured |
| --- | --- | --- | --- | --- |
| c1cc(C2OCCO2)ccn1 [Pyridine, 4-(1,3-dioxalan-2-yl), 4-(1,3-Dioxolan-2-yl)pyridine] | 1 |  |  | Average ratio of female thrips caught relative to water traps (95% CI) (Thrips obscuratus): 16.6 (0.3, 827.2) |
| O=Cc1ccncc1 [4-Formylpyridine] | 0.001 | 66.7 (0.002) % |  | Comment: concentration above which the compound is repellant ([1]; female Frankliniella occidentalis, Y-tube, no unit in the cell (MAC column is in %)): Repellant > 0.01; Activity towards Frankliniella occidentalis at high concentration ([1]; high concentration): repellant; Activity towards Frankliniella occidentalis at low concentration ([1]; low concentration): attractant |
| CCOC(=O)c1ccnc(Cl)c1 [Ethyl 2-chloro-isonicotinate] | 0.0001 | 65.3 (0.005) % | strong attractant | Average ratio of thrips caught relative to water treated traps [2, 5]: 1.8 (2.8) |
| N#Cc1ccncc1 [4-Cyanopyridine] | <100 | 38.7 (0.026) % | thrips-repellant activity | Comment (repellant) [1, 6]: Repellant |
| CC(C)OC(=O)c1ccncc1 [Isopropyl isonicotinate] | 1 | 66.7 (0.002) % |  |  |
| CCCC(=O)c1ccncc1 [n-Propyl 4-pyridyl ketone] | 100 | 54.7 (0.282) % | attractant |  |
| CCCCCCCCCCOC(=O)c1ccncc1 [Decyl isonicotinate] |  |  |  | Average ratio of female thrips caught relative to water traps (95% CI) (Thrips obscuratus): 14.9 (0.3, 739.5) |
| CCCCCCCCCCCCOC(C)=O [dodecyl acetate] |  |  |  | Repellant activity towards Frankliniella occidentalis (literature, alarm pheromones) [3]: repellant activity |
| CCCOC(=O)c1ccncc1 [n-Propyl isonicotinate] | 0.1 | 61.3 (0.026) % |  |  |
| CCC(=O)c1ccncc1 [Ethyl 4-pyridyl ketone] | 1 | 68.0 (0.001) % |  | Attractancy to Thrips tabaci (in words) (Thrips tabaci): attractants |
| CCOC(=O)c1ccncc1 [Ethyl isonicotinate] | 0.001 | 60.0 (0.043) % |  | Average ratio of thrips caught relative to water treated traps [2, 7]: 2.2 (2.8); Average ratio of thrips caught relative to water treated traps [2, 5]: 2.6 (3.9) |
| COC(=O)c1ccncc1 [Methyl isonicotinate] | 0.0001 | 74.7 (<0.001) % |  | Average ratio of thrips caught relative to water treated traps [2, 7]: 4.3 (5.7); Average ratio of thrips caught relative to water treated traps [2, 5]: 3.7 (8.1) |
| CC(=O)c1ccncc1 [Methyl 4-pyridyl ketone] | 0.001 | 77.3 (<0.001) % |  | Average ratio of female thrips caught relative to water traps (95% CI) (Thrips obscuratus): 0 (0.0, >1000); Attractancy to Thrips tabaci (in words) (Thrips tabaci): attractants; Average ratio of thrips caught relative to water treated traps [2, 5]: 3.1 (6.6) |
| CCCCCCCCCCOC(C)=O [Decyl acetate] |  |  |  | Repellant activity towards Frankliniella occidentalis (literature, alarm pheromones) [3]: repellant activity |
| CCCCCCOC(=O)c1ccncc1 [hexyl isonicotinate] |  |  |  | Attractancy to Thrips obscuratus (in words) (Thrips obscuratus): not found to be significantly attractive; Attractancy to Thrips tabaci (in words) (Thrips tabaci): not found to be significantly attractive |
| C=C(C)CCOC(=O)c1ccncc1 [isopentenyl isonicotinate] |  |  | not found to be significantly attractive or repulsive |  |
| CC(=O)Sc1ccncc1 [4-Pyridyl thioacetate] | <100 | 26.7 (<0.001) % | thrips-repellant activity | Comment (repellant) [1, 6]: Repellant |
| CC(C)N(C(=O)c1ccncc1)C(C)C [Di-iso-Propyl isonicotinate, diisopropyl isonicotinamide] | <100 | 81.3 (<0.001) % | attractant |  |
